This note sets out measurements from patent publication US10722520B2, “Heterocyclic compounds and their use in preventing or treating bacterial infections” (MUTABILIS, priority 2016, dated 2020).

Assay [1] concerns E. cloacae P99. The experiment in a line: MIC of compound alone, broth microdilution. It is filed as cell-based. The settings on record: strain P99; compound alone. The method in brief: (§1)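 Log-phase bacteria were diluted to a final 5×10^5 cfu/mL in cation-adjusted Mueller-Hinton broth and incubated 16-20 h at 35° C in ambient air. MIC was taken as the lowest concentration preventing growth, judged visually.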

In assay [2] the test system is E. coli 190317. Nature of the assay: MIC of compound alone, broth microdilution. Type of assay: cell-based. The following applies: strain 190317; compound alone. A digest of the protocol:
as §1

The subject of assay [3] is K. pneumoniae 6299. Nature of the assay: MIC of compound alone, broth microdilution. Type of assay: cell-based. The settings on record: strain 6299; compound alone. A digest of the protocol:
as §1

Assay [4] concerns K. pneumoniae BAA-1898. The experiment in a line: MIC of compound alone, broth microdilution. Type of assay: cell-based. The settings on record: strain BAA-1898; compound alone. The method in brief:
as §1

Assay [5] concerns P. aeruginosa CIP107051. The experiment in a line: MIC of compound alone, broth microdilution. It is filed as cell-based. The following applies: strain CIP107051; compound alone. A digest of the protocol:
as §1

The subject of assay [6] is E. cloacae P99. The experiment in a line: MIC of ceftazidime (CAZ) at fixed concentration of compound (synergy), broth microdilution. Type of assay: cell-based. The settings on record: strain P99; MIC of CAZ, compound fixed at 4 μg/mL. The procedure:
(§2) Log phase bacterial suspensions were adjusted to a final density of 5×10^5 cfu/mL in cation-adjusted Mueller-Hinton broth (Becton-Dickinson) and added to each well (98 μL). Microplates were incubated for 16-20 h at 35° C. in ambient air. The MIC of the compounds was defined as the lowest concentration of said compounds that prevented bacterial growth as read by visual inspection.

Assay [7] deals with E. coli 190317. The description is as above. It is filed as cell-based. The settings on record: strain 190317; MIC of CAZ, compound fixed at 4 μg/mL. On the procedure:
as §2

Assay [8] has as its system K. pneumoniae 6299. Described as above. Type of assay: cell-based. The following applies: strain 6299; MIC of CAZ, compound fixed at 4 μg/mL. The procedure: as §2
Assay [9] relates to K. pneumoniae BAA-1898. Described as above. The settings on record: strain BAA-1898; MIC of CAZ, compound fixed at 4 μg/mL. It is filed as cell-based. On the procedure:
as §2

Assay [10] concerns P. aeruginosa CIP107051. The description is as above. It is filed as cell-based. The following applies: strain CIP107051; MIC of CAZ, compound fixed at 4 μg/mL. The procedure: as §2
Another assay concerns the target AmpC (P99) (Enterobacter cloacae, UniProt P05364). The following applies: read-out: IC50 β-lactamase AmpC (P99); class (C); nitrocefin 200 μM, 30-min pre-incubation, enzyme 0.2 nM.
Another assay deals with CMY-37 (Citrobacter freundii, UniProt P05193). The settings on record: read-out: IC50 β-lactamase CMY-37; class (C); nitrocefin 200 μM, 30-min pre-incubation, enzyme 0.2 nM.
A further assay addresses AmpC (PAE) (Pseudomonas aeruginosa, UniProt P24735). The following applies: read-out: IC50 β-lactamase AmpC (PAE); class (C); nitrocefin 200 μM, 30-min pre-incubation, enzyme 0.4 nM.
The target in another assay is OXA-15 (Pseudomonas aeruginosa, UniProt Q51574). The following applies: read-out: IC50 β-lactamase OXA-15; class (D); nitrocefin 200 μM, 30-min pre-incubation, enzyme 0.4 nM.
The target of another assay is TEM-1 (Escherichia coli, UniProt P62593). The settings on record: read-out: IC50 β-lactamase TEM-1; class (A); nitrocefin 200 μM, 30-min pre-incubation, enzyme 0.1 nM.
The target in a further assay is SHV-1 (Klebsiella pneumoniae, UniProt P0AD64). The following applies: read-out: IC50 β-lactamase SHV-1; class (A); nitrocefin 200 μM, 30-min pre-incubation, enzyme 0.075 nM.
In the next assay the target is CTX-M-15 (Escherichia coli, UniProt Q9EXV5). The following applies: read-out: IC50 β-lactamase CTX-M-15; class (A); nitrocefin 200 μM, 30-min pre-incubation, enzyme 0.4 nM.
The target in another assay is KPC-2 (Klebsiella pneumoniae, UniProt Q9F663). The settings on record: read-out: IC50 β-lactamase KPC-2; class (A); nitrocefin 200 μM, 30-min pre-incubation, enzyme 1 nM.
In another assay the target is OXA-1 (Escherichia coli, UniProt P13661). The following applies: read-out: IC50 β-lactamase OXA-1; class (D); nitrocefin 200 μM, 30-min pre-incubation, enzyme 0.2 nM.
Another assay concerns the target OXA-11 (Pseudomonas aeruginosa, UniProt Q06778). The settings on record: read-out: IC50 β-lactamase OXA-11; class (D); nitrocefin 200 μM, 30-min pre-incubation, enzyme 1.2 nM.
The next assay has as its target OXA-48 (Klebsiella pneumoniae, UniProt Q6XEC0). The following applies: read-out: IC50 β-lactamase OXA-48; class (D); nitrocefin 200 μM, 30-min pre-incubation, enzyme 0.3 nM.

On to `O=C(O)C(F)(F)F.O=C1N2CC(n3ccc(CNc4nccs4)n3)=CC(C2)N1OS(=O)(=O)[O-].[Na+]` (stereo not drawn) [Example 35, sodium and 2,2,2-trifluoroacetate [7-oxo-3-[3-(methylene-2-ammoniumthiazole)pyrazol-1-yl]-1,6-diazabicyclo[3.2.1]oct-3-en-6-yl]sulfate], for which the “MIC compounds of the invention alone” value is more than 32 µg/mL in the assay with E. cloacae P99 [1]; 16 µg/mL in the assay with E. coli 190317 [2]; more than 32 µg/mL with K. pneumoniae 6299 [3]; more than 32 µg/mL in the assay with K. pneumoniae BAA-1898 [4]; more than 32 µg/mL with P. aeruginosa CIP107051 [5]. The “MIC combination of CAZ and compounds of the invention at 4 μg/mL” value (shortened to “MIC combination”) came to 32 µg/mL in the assay on E. cloacae P99 [6]; 0.5 µg/mL in the assay with E. coli 190317 [7]; 32 µg/mL in the assay with K. pneumoniae 6299 [8]; 32 µg/mL in the assay on K. pneumoniae BAA-1898 [9]; 16 µg/mL in the assay on P. aeruginosa CIP107051 [10]. Also, the half-inhibitory concentration (IC50) was determined as 12 nM at AmpC (P99); 8.1 nM at CMY-37; 52 nM on AmpC (PAE); 79 nM on OXA-15; 0.73 nM at TEM-1; 3.2 nM at SHV-1. The IC50 is 0.5 nM at CTX-M-15; 13 nM on KPC-2; 130 nM on OXA-1; 54 nM on OXA-11; 6 nM at OXA-48.
Regarding `O=C([O-])Cc1cn(C2=CC3CN(C2)C(=O)N3OS(=O)(=O)[O-])nn1.[Na+].[Na+]` (stereo not drawn) [Example 61], the “MIC compounds of the invention alone” value with E. cloacae P99 [1] is 32 µg/mL; in the assay on E. coli 190317 [2] it was 32 µg/mL; in the assay on K. pneumoniae 6299 [3], 32 µg/mL; with K. pneumoniae BAA-1898 [4] it was more than 32 µg/mL; in the assay on P. aeruginosa CIP107051 [5] it was more than 32 µg/mL. For the same compound, the “MIC combination” value in the assay on E. cloacae P99 [6] turned out to be 8 µg/mL; with E. coli 190317 [7], 0.5 µg/mL; with K. pneumoniae 6299 [8], 4 µg/mL; with K. pneumoniae BAA-1898 [9], 64 µg/mL; in the assay on P. aeruginosa CIP107051 [10] it was 4 µg/mL. Moreover, the 50% inhibitory concentration (IC50) was found to be 20 nM on AmpC (P99); 41 nM on CMY-37; 1100 nM on AmpC (PAE); 19 nM on OXA-15; 1.7 nM on TEM-1; 6.1 nM at SHV-1. Moreover, the IC50 on CTX-M-15 was determined as 1.8 nM; on KPC-2, 17 nM; at OXA-1, 110 nM; at OXA-11 it was 360 nM; on OXA-48, 0.91 nM.
`CC(=O)Nc1cnn(C2=CC3CN(C2)C(=O)N3OS(=O)(=O)[O-])c1.[Na+]` (stereo not drawn) [Example 21, sodium [3-(4-acetamidepyrazol-1-yl)-7-oxo-1,6-diazabicyclo[3.2.1]oct-3-en-6-yl]sulfate]: the “MIC compounds of the invention alone” value is more than 32 µg/mL in the assay with E. cloacae P99 [1]; 16 µg/mL with E. coli 190317 [2]; more than 32 µg/mL in the assay on K. pneumoniae 6299 [3]; more than 32 µg/mL in the assay on K. pneumoniae BAA-1898 [4]; more than 32 µg/mL in the assay on P. aeruginosa CIP107051 [5]. The “MIC combination” value came out at 16 µg/mL in the assay with E. cloacae P99 [6]; 0.25 µg/mL in the assay with E. coli 190317 [7]; 4 µg/mL in the assay with K. pneumoniae 6299 [8]; 64 µg/mL with K. pneumoniae BAA-1898 [9]; 4 µg/mL in the assay on P. aeruginosa CIP107051 [10]. Moreover, the IC50 was found to be 230 nM at AmpC (P99); 99 nM on CMY-37; 320 nM on AmpC (PAE); 290 nM at OXA-15; 6.1 nM on TEM-1; 24 nM on SHV-1. For the same compound, the IC50 at CTX-M-15 is 3.7 nM; on KPC-2 it was 270 nM; at OXA-1, 2100 nM; on OXA-11, 1400 nM; on OXA-48, 45 nM.
With `O=C1N2CC(n3cc(-c4nccs4)nn3)=CC(C2)N1OS(=O)(=O)[O-].[Na+]` (stereo not drawn) [Example 55, sodium [7-oxo-3-(4-thiazol-2-yltriazol-1-yl)-1,6-diazabicyclo[3.2.1]oct-3-en-6-yl]sulfate], the “MIC compounds of the invention alone” value in the assay with E. cloacae P99 [1], with E. coli 190317 [2], in the assay with K. pneumoniae 6299 [3], in the assay with K. pneumoniae BAA-1898 [4] and with P. aeruginosa CIP107051 [5] was more than 32 µg/mL throughout. Further, the “MIC combination” value amounted to 8 µg/mL in the assay with E. cloacae P99 [6]; 0.25 µg/mL with E. coli 190317 [7]; 4 µg/mL with K. pneumoniae 6299 [8]; 1 µg/mL in the assay on K. pneumoniae BAA-1898 [9]; 8 µg/mL with P. aeruginosa CIP107051 [10]. The half-maximal inhibitory concentration (IC50) was determined as 6.3 nM on AmpC (P99); 35 nM at CMY-37; 230 nM on AmpC (PAE); 3.4 nM on OXA-15; 0.14 nM at TEM-1; 0.61 nM on SHV-1. The IC50 is 0.41 nM on CTX-M-15; 0.82 nM on KPC-2; 26 nM on OXA-1; 25 nM on OXA-11; 0.27 nM at OXA-48.
With `N#Cc1ccn(C2=CC3CN(C2)C(=O)N3OS(=O)(=O)[O-])n1.[Na+]` (stereo not drawn) [Example 17, sodium [3-(3-carbonitrilepyrazol-1-yl)-7-oxo-1,6-diazabicyclo[3.2.1]oct-3-en-6-yl]sulfate], the “MIC compounds of the invention alone” value in the assay with E. cloacae P99 [1] was 16 µg/mL; in the assay with E. coli 190317 [2], 4 µg/mL; in the assay with K. pneumoniae 6299 [3], more than 32 µg/mL; in the assay with K. pneumoniae BAA-1898 [4], 16 µg/mL; in the assay with P. aeruginosa CIP107051 [5] it was more than 32 µg/mL. Moreover, the “MIC combination” value in the assay with E. cloacae P99 [6] is 1 µg/mL; in the assay with E. coli 190317 [7], less than 0.25 µg/mL; with K. pneumoniae 6299 [8], 0.25 µg/mL; with K. pneumoniae BAA-1898 [9], 0.25 µg/mL; in the assay with P. aeruginosa CIP107051 [10], 8 µg/mL. The IC50 on AmpC (P99) worked out at 30 nM; at CMY-37 it was 87 nM; at AmpC (PAE) it was 280 nM; at OXA-15, 30 nM; at TEM-1 it was 0.23 nM; on SHV-1 it was 1 nM. Moreover, the IC50 on CTX-M-15 came to 0.76 nM; on KPC-2 it was 3.7 nM; on OXA-1, 100 nM; on OXA-11, 63 nM; at OXA-48, 5.8 nM.
